Assays:
Iba-1 = experiment: Immunohistochemical quantification of Iba-1 (microgliosis); assay type: in vivo, mice; conditions: 0.3 mg/Kg i.p.
Procedure: (§1) The neuroprotective effect of the compounds, i.e. the ability thereof to protect cells from Aβ25-35 oligomer neurotoxicity and neurodegeneration, is also tested (FIG. 10). The test compounds are thus administered on the same day as the injection of the Aβ25-35 oligomers and are continued to be administered on a daily basis up to day 7 after the injection of the oligomers, at which time the mice are subjected to the YMT, PAT, MWT or ORT. The brain's anatomy is analysed and neuronal cells are counted by immunohistochemistry on mice sacrificed at D13. The biochemical analyses for the quantification of markers of oxidative stress and apoptosis were carried out at D16 on a group of mice that had been subjected to the WMT (FIG. 10).
They were previously anaesthetised by i.p. injection of 200 μL of a solution of ketamine (80 mg/Kg) and xylazine (10 mg/Kg), then the tissues were fixed by intracardiac perfusion of 50 mL of a saline solution followed by 50 mL of Antigenfix® fixative (Diapath). The samples were kept for a further 48 hours in the fixative at 4° C., and then the mouse brains were stored in a 30% sucrose solution in PBS, before being sliced.
Slices were taken of each area of the brain, in particular the cortex, the nucleus basalis magnocellularis and the hippocampus (i.e. between bregma +1.8 and bregma −2.8 according to the stereotaxic coordinates of the mouse brain, Paxinos et al., 2004). Serial coronal sections with a thickness of 25 μm were cut with a freezing microtome (Microm HM 450, Thermo Fisher) and stored at −20° C. in a cryoprotective solution. […]
Immunohistochemical labelling is carried out in a conventional manner. […] After rinsing with PBS, the sections were mounted in a mounting fluid (ProLong, ThermoFischer) and images of each section were taken with a confocal fluorescence microscope (Leica SPE) for different sub-regions of the hippocampus such as the stratum radiatum (Rad), the stratum moleculare (Mol), the polymorphic layer of the dentate gyrus (PoDG) and for the cortex, the lateral parietal association area (LPtA). […]

[1] = tested on: Aβ25-35 oligomer-intoxicated mice; experiment: Morris water maze test, neuroprotection design; assay type: in vivo; conditions: 0.3 mg/Kg, probe test
Procedure: as §1
This test is used to assess long-term spatial reference memory. […] The animals' swimming behaviour was recorded (Videotrack® software, Viewpoint), and the trajectories, latencies and distances covered were measured. […] Median latency (time taken to find the platform) was calculated for each training day and expressed for the group as the mean latency±standard deviation. […] Each mouse was left in the water for 60 seconds and its swimming behaviour was recorded. The time spent in the north-eastern quadrant, which originally contained the platform (T), was measured and compared to the average time spent in the other quadrants (o).

non-intoxicated mice = experiment: Y-maze, amnestic effect in non-intoxicated mice; assay type: in vivo; conditions: 10 mg/Kg i.p.
Procedure: The spontaneous alternation test was used to assess spatial working memory (very short-term memory) in rodents. The maze was made of grey opaque polyvinylchloride (PVC). Each arm was 40 cm long, 13 cm high, 3 cm wide at the bottom, and 10 cm wide at the top. The arms converged towards one another at an equal angle between the different arms. In brief, each mouse was placed at the end of one arm and allowed to move freely during an 8 min session. The mouse's entries into each arm, including the arm at whose end it was placed, are recorded. An alternation is defined as the animal's successive entry into three different arms. The number of maximum alternations is thus the total number of entries into each arm minus 2 and the percentage of alternation was calculated according to the formula: % Alt=number of actual alternations/maximum number of alterations×100
The parameters measured included the percentage of alternations (memory index) and the total number of entries into the arms of the maze (exploration index, Maurice et al., 1994, 1996; Meunier et al., 2006, 2013; Villard et al., 2009, 2011). Data from the animals showing extreme behaviour (percentage of alternation <25% or >90%, or a number of entries less than 10) were excluded from the calculations. The attrition rate was routinely 5%. Under normal conditions, a mouse will spontaneously alternate exploring each of the arms. A mouse with impaired memory and/or orientation abilities will have a lower percentage of alternations.
In this experiment, memantine and FENM were administered at a dose of 10 mg/Kg i.p. and the performance of the mice was tested using the passive avoidance test and the Y-maze with non-intoxicated mice.

| SMILES | Iba-1 labelling (microglial response) (Iba-1; all brain areas tested (Rad, Mol, PoDG, LPtA)) | time spent in the training quadrant (learning and long-term spatial memory) [1] | Alternation (%) (non-intoxicated mice) | Number of entries (non-intoxicated mice) | Iba-1 labelling (microglial response) (Iba-1; PoDG area) | Iba-1 labelling (microgliosis) (Iba-1; cortex (LPtA)) |
| --- | --- | --- | --- | --- | --- | --- |
| NC12CC3CC(C1)CC(CCF)(C3)C2 [FENM, 3-(2-fluoroethyl)adamantan-1-amine] | significantly decreases the astrocytic and microglial response in all of the brain areas tested | maintained their learning and memory abilities | 63.7 ± 4.2 | 32.7 ± 3.4 | – | – |
| CC12CC3CC(C)(C1)CC(N)(C3)C2 [memantine, 3,5-Dimethyl-1-adamantanamine, reference compound] | – | did not prevent the impairment of learning and memory functions | 48.8 ± 3.0 | 28.2 ± 2.9 | positive effect in the PoDG area | no effect |
